According to patent publication US6346610B1, “Process for preparing antifungal V-28-3M” (Ajinomoto Co., Ltd., priority 1997, dated 2002):
Where two headings read alike, the source gives them in different places.

Key:
[1] = antimycotic activity of V-28-3M; settings: V-28-3M obtained by Example 5, compared with V-28-3M described in JP-A-3-81225
[2] = background statement, JP-A-63-218686 and JP-A-3-81225; cited from earlier work
[3] = system: animal cells; settings: background statement, JP-A-63-218686 and JP-A-3-81225; cited from earlier work

COC(=O)C1C(O)CC2(O)CC(O)CC(O)CC(O)CC(O)CC(=O)CC(O)CC(=O)OC(C(C)CCC(O)CC(=O)c3ccc(N)cc3)C(C)\C=C/C=C\C=C\C=C\C=C\C=C\C=C\C(OC3OC(C)C(O)C(N)C3O)CC1O2 (stereo not drawn) [Example V-28-3M, V-28-3M]
antimycotic activity [1]: the same result was also obtained | antimycotic activity [2]: high | toxicity for animal cells [3]: low
